The values below come from ChEMBL document CHEMBL5465560, “Selectivity Literature for EUbOPEN Chemogenomic Library” (2024).

SMILES strings stand for the structures.

Assay [1] concerns the target T1, Serine/threonine-protein kinase 17B (Homo sapiens) (UniProt O94768).
T1 sequence (whole entry): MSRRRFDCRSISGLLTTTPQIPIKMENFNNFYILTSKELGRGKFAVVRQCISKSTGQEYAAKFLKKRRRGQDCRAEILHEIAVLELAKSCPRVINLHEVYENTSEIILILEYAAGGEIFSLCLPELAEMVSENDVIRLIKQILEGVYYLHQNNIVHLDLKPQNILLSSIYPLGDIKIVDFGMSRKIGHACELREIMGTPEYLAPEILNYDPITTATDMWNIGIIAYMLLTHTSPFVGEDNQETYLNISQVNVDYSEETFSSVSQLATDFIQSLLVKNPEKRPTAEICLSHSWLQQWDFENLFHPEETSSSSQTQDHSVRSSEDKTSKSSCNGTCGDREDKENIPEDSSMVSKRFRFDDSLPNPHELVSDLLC
Description: Selectivity interaction (LanthaScreen Eu Kinase Binding Assay) EUB0001632a STK17B. The conditions noted are these: at 10 µM.

Assay [2] addresses T2, Serine/threonine-protein kinase D3 (Homo sapiens) (UniProt O94806).
T2 sequence (whole entry): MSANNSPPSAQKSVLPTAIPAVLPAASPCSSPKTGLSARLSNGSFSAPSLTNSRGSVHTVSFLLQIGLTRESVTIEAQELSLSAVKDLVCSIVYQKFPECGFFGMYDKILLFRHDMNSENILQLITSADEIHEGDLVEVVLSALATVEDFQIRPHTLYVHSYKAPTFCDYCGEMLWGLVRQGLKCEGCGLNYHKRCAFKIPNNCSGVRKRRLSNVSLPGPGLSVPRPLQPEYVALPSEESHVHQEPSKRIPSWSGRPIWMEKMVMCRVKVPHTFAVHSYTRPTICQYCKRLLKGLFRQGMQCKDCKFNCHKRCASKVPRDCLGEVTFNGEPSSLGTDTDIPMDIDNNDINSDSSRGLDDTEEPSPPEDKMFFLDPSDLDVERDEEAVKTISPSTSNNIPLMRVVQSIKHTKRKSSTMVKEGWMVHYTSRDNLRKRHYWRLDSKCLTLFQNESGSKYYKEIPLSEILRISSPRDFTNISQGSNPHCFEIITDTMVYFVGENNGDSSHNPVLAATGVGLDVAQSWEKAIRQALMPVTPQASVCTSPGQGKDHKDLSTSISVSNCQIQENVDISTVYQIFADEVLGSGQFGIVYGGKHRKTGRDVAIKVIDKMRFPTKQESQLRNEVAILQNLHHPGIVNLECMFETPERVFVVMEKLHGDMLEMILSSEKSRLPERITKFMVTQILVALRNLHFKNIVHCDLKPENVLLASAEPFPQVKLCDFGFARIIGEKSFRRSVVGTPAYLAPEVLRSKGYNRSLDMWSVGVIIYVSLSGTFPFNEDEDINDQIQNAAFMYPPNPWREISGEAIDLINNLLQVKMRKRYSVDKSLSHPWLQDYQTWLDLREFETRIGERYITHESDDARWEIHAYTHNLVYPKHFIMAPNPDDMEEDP
Put plainly: Selectivity interaction (KinomeScan (DiscoverX)) EUB0000666a PRKD3. Particulars: at 10 µM.

Assay [3] concerns the target Serine/threonine-protein kinase SIK3 (Homo sapiens) (UniProt Q9Y2K2). Put plainly: Selectivity interaction (KinomeScan (DiscoverX)) EUB0000666a SIK3. The conditions noted are these: at 10 µM.
The target in assay [4] is T3, Dual specificity tyrosine-phosphorylation-regulated kinase 3 (Homo sapiens) (UniProt O43781).
T3 sequence (whole entry): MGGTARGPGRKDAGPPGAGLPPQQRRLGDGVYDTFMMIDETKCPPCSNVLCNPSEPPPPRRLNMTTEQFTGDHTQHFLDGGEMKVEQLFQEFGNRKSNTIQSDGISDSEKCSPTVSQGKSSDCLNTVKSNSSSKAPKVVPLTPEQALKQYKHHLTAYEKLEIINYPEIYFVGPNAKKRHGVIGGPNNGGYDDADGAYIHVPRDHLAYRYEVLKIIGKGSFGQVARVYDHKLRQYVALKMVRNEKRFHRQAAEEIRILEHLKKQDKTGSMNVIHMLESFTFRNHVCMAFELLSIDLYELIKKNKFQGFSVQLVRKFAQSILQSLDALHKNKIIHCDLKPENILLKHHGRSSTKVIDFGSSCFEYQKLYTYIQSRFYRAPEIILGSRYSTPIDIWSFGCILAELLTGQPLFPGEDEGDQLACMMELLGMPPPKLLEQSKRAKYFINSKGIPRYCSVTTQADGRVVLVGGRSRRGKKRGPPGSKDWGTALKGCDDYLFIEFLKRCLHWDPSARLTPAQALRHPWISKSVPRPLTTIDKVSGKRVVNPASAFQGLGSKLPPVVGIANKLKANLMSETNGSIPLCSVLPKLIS
Put plainly: Selectivity interaction (ProQinase) EUB0000171b DYRK3.

Assay [5] deals with Cyclin-dependent kinase 13 (Homo sapiens, UniProt Q14004). Put plainly: Selectivity interaction (Ambit KINOMEscan and KiNATiv profiling in Jurkat cells) EUB0000090b CDK13. It is filed as cell-based. The conditions noted are these: at 1 µM.
Assay [6] concerns the target Ephrin type-A receptor 2 (Homo sapiens) (UniProt P29317). Description: Selectivity interaction (Ambit KINOMEscan and KiNATiv profiling in Jurkat cells) EUB0000090b EPHA2. Particulars: at 1 µM. The class given is cell-based.
The target in assay [7] is T4, Cytoplasmic tyrosine-protein kinase BMX (Homo sapiens) (UniProt P51813).
T4 sequence (whole entry): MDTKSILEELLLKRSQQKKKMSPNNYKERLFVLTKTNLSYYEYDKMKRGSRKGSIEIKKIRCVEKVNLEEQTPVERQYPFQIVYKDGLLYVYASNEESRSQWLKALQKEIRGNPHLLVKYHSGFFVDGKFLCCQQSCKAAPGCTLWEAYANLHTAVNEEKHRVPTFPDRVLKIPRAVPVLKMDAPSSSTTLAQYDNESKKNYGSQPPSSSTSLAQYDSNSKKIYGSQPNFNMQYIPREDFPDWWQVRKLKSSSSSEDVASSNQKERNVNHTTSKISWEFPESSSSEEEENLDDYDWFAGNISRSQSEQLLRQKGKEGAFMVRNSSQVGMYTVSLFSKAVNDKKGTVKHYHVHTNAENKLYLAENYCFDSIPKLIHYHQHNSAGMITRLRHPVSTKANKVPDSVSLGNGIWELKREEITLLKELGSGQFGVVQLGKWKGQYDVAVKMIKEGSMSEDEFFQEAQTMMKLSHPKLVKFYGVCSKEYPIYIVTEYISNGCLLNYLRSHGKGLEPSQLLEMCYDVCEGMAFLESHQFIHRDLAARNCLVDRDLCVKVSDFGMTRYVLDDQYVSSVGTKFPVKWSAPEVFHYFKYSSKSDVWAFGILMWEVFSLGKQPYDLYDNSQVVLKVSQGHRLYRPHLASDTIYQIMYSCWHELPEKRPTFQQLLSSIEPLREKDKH
Put plainly: Selectivity interaction (KinomeScan (DiscoverX)) EUB0000229b BMX. The conditions noted are these: at 10 µM.

Chain of Ephrin type-A receptor 2 (Homo sapiens) (P29317 whole entry): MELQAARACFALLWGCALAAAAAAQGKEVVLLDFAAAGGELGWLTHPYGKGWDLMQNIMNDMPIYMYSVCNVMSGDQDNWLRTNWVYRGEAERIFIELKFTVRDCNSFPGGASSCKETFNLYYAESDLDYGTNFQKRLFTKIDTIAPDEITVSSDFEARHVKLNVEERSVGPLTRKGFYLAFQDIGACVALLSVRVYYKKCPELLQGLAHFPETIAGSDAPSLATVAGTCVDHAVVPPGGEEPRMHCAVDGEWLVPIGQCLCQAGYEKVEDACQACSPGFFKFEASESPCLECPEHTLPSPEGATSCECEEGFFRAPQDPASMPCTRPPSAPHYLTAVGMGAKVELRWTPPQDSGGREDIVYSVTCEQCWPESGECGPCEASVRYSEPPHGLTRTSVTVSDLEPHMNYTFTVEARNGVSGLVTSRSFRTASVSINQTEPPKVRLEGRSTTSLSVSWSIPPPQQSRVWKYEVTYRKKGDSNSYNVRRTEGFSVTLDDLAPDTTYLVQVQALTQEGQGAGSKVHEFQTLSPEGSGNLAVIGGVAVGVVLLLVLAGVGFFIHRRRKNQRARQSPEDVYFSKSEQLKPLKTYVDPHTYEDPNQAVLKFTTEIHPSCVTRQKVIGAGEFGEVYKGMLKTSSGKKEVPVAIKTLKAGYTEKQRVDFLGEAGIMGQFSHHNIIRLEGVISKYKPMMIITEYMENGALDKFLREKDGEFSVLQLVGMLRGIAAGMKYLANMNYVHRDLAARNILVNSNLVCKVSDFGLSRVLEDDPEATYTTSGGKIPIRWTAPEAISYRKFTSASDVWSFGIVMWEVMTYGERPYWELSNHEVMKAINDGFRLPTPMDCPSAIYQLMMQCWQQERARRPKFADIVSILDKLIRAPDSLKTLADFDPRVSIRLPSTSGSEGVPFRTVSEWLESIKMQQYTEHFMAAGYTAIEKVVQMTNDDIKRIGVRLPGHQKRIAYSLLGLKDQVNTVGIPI
Chain of Cyclin-dependent kinase 13 (Q14004 whole entry, looked up): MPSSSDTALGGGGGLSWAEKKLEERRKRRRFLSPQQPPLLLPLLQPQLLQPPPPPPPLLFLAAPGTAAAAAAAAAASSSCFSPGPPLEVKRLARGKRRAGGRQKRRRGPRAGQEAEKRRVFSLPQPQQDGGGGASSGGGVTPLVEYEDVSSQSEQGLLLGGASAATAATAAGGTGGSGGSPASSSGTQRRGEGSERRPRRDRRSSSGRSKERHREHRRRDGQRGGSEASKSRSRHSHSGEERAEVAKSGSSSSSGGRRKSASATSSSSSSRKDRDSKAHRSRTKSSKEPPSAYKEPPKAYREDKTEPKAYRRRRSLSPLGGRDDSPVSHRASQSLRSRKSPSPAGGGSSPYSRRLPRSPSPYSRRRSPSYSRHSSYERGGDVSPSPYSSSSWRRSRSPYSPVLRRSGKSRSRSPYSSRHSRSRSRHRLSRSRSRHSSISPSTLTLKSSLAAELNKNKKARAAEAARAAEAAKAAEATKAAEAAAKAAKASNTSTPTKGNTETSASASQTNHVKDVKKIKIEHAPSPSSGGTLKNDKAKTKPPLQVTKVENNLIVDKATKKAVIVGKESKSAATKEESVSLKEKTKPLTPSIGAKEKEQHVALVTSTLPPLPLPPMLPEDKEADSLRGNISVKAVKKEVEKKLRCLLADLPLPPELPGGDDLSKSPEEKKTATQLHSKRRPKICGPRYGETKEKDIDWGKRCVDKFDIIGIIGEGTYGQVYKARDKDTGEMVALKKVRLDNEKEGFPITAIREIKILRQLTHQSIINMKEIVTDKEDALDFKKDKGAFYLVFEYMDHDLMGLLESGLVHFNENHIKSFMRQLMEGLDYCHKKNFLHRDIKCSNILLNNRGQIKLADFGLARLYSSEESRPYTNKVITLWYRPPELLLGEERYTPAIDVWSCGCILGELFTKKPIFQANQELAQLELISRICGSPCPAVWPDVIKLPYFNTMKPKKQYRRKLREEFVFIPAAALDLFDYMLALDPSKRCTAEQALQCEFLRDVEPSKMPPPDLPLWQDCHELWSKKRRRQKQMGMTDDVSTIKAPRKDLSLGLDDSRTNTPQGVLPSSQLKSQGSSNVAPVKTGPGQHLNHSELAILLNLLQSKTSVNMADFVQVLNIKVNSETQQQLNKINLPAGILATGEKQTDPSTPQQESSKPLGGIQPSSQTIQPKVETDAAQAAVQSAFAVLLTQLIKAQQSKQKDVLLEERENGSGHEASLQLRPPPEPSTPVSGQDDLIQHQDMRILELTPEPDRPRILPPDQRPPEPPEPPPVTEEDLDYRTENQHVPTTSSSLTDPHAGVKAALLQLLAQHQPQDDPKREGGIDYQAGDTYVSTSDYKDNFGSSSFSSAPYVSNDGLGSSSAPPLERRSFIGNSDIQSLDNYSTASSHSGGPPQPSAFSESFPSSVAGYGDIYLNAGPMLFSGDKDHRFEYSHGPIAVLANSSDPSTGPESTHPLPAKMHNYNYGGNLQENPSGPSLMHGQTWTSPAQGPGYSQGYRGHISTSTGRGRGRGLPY
Chain of Serine/threonine-protein kinase SIK3 (Homo sapiens) (Q9Y2K2 whole entry, looked up): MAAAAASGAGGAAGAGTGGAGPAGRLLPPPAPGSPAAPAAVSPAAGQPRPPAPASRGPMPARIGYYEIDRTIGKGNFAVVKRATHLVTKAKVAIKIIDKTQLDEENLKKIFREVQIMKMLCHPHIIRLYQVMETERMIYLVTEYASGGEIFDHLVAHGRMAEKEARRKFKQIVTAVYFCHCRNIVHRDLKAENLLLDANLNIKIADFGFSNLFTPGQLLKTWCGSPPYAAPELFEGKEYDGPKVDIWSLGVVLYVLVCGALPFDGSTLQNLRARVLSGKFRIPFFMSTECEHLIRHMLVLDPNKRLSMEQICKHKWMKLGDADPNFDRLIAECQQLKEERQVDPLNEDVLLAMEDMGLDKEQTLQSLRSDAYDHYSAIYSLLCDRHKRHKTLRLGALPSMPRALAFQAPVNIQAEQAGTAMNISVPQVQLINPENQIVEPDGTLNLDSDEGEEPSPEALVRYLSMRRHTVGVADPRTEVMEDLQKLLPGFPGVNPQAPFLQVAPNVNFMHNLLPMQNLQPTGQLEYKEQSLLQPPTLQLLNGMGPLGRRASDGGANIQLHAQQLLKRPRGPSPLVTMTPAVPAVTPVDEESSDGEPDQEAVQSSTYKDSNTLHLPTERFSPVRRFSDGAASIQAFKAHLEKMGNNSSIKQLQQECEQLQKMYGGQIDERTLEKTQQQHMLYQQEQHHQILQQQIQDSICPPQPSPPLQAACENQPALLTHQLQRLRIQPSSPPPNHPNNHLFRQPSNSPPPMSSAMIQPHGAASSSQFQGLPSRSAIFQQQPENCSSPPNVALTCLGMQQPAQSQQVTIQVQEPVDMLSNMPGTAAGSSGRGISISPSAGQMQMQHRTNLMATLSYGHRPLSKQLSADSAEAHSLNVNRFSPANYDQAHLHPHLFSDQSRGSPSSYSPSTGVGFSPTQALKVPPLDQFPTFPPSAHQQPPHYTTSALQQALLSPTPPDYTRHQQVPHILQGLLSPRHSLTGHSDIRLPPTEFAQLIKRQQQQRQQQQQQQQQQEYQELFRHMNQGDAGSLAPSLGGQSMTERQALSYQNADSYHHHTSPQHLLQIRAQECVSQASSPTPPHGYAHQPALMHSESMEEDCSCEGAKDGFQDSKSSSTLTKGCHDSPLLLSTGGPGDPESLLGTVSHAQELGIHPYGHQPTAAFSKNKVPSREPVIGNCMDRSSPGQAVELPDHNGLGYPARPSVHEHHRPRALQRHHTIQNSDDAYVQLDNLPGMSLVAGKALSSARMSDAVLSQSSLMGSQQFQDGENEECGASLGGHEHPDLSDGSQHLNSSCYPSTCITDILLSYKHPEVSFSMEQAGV

As to `Cn1cc(-n2cnc3c(NCc4nc5cc(Cl)c(Cl)cc5[nH]4)nc(N4CCOCC4)nc32)cn1`, the % of inhibition in assay [1] was -19.1%.

Turning to `O=C(NOC[C@H](O)CO)c1ccc(F)c(F)c1Nc1ccc(I)cc1F`, the % of control was found to be 70% in assay [2] and 52% in assay [3].

Take `C=CC(=O)Nc1cccc(C(=O)Nc2ccc(Nc3cc(-c4[nH]c(SC)nc4C)ccn3)cc2)c1`: the % of control in assay [4] (at 1 µM) was 82%; in assay [4] (at 5 µM), 39%.

`CN(C)C/C=C/C(=O)Nc1ccc(C(=O)N2CCCC(Nc3ncc(Cl)c(-c4c[nH]c5ccccc45)n3)C2)cc1` (stereo not drawn): the % of control in assay [5] turned out to be 2.8%; in assay [6], 98%.

Take `COc1cc(N(C)c2ccnc3ccc(C(F)(F)F)cc23)cc(OC)c1OC`: in assay [7], the % binding came out at 88%.
